Reference: publication PMC9423655, “Huntington’s disease phenotypes are improved via mTORC1 modulation by small molecule therapy” (PLoS ONE, 2022)

Columns and labels:
N171-82Q HD mice = experiment: Isoprenaline cardiac stress: survival, weight, echocardiography, heart weight, cardiomyocyte area, fibrosis; type: in vivo, N171-82Q mice
Method: The initial trial consisted in one week of oral dosing in 12 weeks old N171-82Q males. The chronic 6 weeks treatment (Veh n = 15, NV-5297 n = 14) took place from 6 to 12 weeks of age. The cardiac stress took place in animals from 10 to 12 weeks of age (Veh-Sal n = 9, NV-Sal n = 10, Veh-Iso n = 16, NV-Iso n = 11).
Mice were anesthetized with 2% isoflurane and restrained on a stage with electrocardiogram (EKG) sensors. Transthoracic echocardiograms were performed using the Vevo 3100 Imaging System with a linear array MX550D transducer. Images were acquired by an experienced echocardiographer and then analyzed offline using the Vevo LAB analysis software. Parasternal long axis views and short axis views were used to assess left ventricular function. Measurements were performed to evaluate left ventricular dimensions during both systole and diastole of the cardiac cycle. The Vevo LAB left ventricle [LV] analysis tool, LV trace, was used to calculate cardiac output [CO] (heart rate ∙ stroke volume), fractional shortening [FS] (ventricle diameter at the end of the diastole–ventricle diameter at the end of the systole), ejection fraction [EF] (percentage of blood ejected by the left ventricle by heart beat), stroke volume (SV) (blood volume ejected from the left ventricle per beat), heart rate [HR] (bpm), left ventricular mass [LVmass], dimensions and volumes. Both imaging and analysis were performed by an operator blinded to the mice experimental treatment.
Cardiomyocyte area was measured in wheat germ agglutinin-labelled heart sections as previously described. Briefly, sections were cleared and rehydrated through xylene and ethanol, then labelled with WGA conjugated to Alexa Fluor 594 (8 μg/ml, Biotium) per manufacturer’s protocol. Sections were counterstained with Hoechst stain (2 μg/ml, Thermo Scientific). High-power digital images were collected such that the entirety of the left ventricular free wall was represented. A grid was superimposed over each image in ImageJ to randomly select cardiomyocytes sectioned perpendicular to the long axis, and the area of those cells was measured manually. At least 240 cardiomyocytes were measured per section. Cardiomyocyte areas were averaged for each treatment group.
The percent of area occupied by fibrotic tissue was calculated as previously described. Briefly, heart sections were cleared and rehydrated through xylene and ethanol. Sections were counterstained with Weigert’s haematoxylin (Sigma) per manufacturer’s protocol. Collagen was labelled by staining to equilibrium with Picrosirius red (0.1% Direct Red 80, Sigma, in saturated picric acid, Sigma). Bright field and corresponding polarized light digital images were taken such that the entirety of the left ventricular free wall was represented. Image threshold was adjusted to highlight either the entire tissue (bright field) or the fibrotic tissue (polarized) in ImageJ, and percent area occupied by fibrotic tissue was calculated from these images. Large vessels were excluded from the analysis.
Isoprenaline (Sigma) was dissolved in sterile PBS and administered by continuous infusion using implantable mini-osmotic pumps (Alzet) at a dose of 30 mg/kg body mass/day. Pumps were filled and primed in a sterile environment and inserted under 2.5% isoflurane anesthesia into the right dorsal subcutaneous space caudal to the scapulae.
We next tested if daily NV-5297 dosing in HD mice could enable cardiac adaptation to chronic stress. In this experiment, the NV-Sal and Veh-Sal groups have an osmotic pump implant on their back. The presence of this pump makes the echocardiography more challenging, justifying the difference to the baseline groups measurements along with the smaller sample size for this experiment. For this study, we found no significant […] and therefore we focused on the changes within the vehicle-treated groups and within the NV-5297-treated groups. […]

Npr13KO HEK293T cells = experiment: mTORC1 activation (p70S6K1) in HEK293T cells null for GATOR1 component Nprl3; type: cell-based; details: leucine-starved 50 minutes, treatment 10 minutes
Method: All cell lines were cultured in DMEM (Corning, #MT10013CV) supplemented with 10% heat-inactivated FBS (Gibco, #16140–071). All cell lines were maintained at 37°C and 5% CO2. For amino acid starvation, cells were rinsed once with and incubated Amino acid-free RPMI (US Biologicals, #R8999-04A) supplemented with 10% dialyzed FBS (Gibco, #26400044) for 50 min followed by treatment with NV-5297, leucine, or vehicle for 10 minutes. For leucine starvation, cells were rinsed once with and incubated in leucine-free DMEM (AthenaES, #0420) supplemented with 10% dialyzed FBS (Gibco, #26400044) for 50 minuted followed by treatment with NV-5297, leucine, or vehicle for 10 minutes.
To ascertain if Sestrins and the GATOR pathway are required for NV-5297 activity, we tested mTORC1 activation in cells null for either all three Sestrin isoforms [SesnTKO] or for the GATOR1 component Npr13 [Npr13KO] [44]. […]
(A) Activation of the mTORC1 pathway by NV-5297. […] Representative immunoblots of ^T389pS6K1 and quantification of the normalized level of ^T389pS6K1 from 8 independent experiments (F) show TORC1 activity in unedited HEK-293T cells, HEK-293T cells deficient for Sestrin 1 (Sesn1), 2 (Sesn2) and 3 (Sesn3) (D) or HEK-293T cells deficient for the GATOR1 component Nprl3 (E) after 50 minutes leucine starvation followed by the addition of vehicle, NV-5297 or leucine for 10 minutes. […]

[1] = N171-82Q mice under isoprenaline cardiac stress

**Q.** For `CC(C)(C[C@H](N)C(=O)O)C(F)(F)F` [NV-5297, (S)-2-amino-5,5,5-trifluoro-4,4-dimethylpentanoic acid], which mortality (N171-82Q HD mice; Iso-stressed N171-82Q mice (isoprenaline 30 mg/kg/day, 14 days), NV-5297 160 mg/kg oral daily) is on record?
**A.** 45%

**Q.** What about the “body weight over trial duration” value (N171-82Q HD mice; [1]) of the same compound?
**A.** maintained their weight

**Q.** What about the “cardiac output from baseline” value (N171-82Q HD mice; [1]) of the same compound?
**A.** increase

**Q.** And the cardiomyocyte area (N171-82Q HD mice; [1])?
**A.** increased

**Q.** What about the “ejection fraction from baseline” value (N171-82Q HD mice; [1]) of the same compound?
**A.** increased

**Q.** What about the “fractional shortening from baseline” value (N171-82Q HD mice; [1]) of the same compound?
**A.** increased

**Q.** What about the heart fibrosis (N171-82Q HD mice; [1]) of the same compound?
**A.** devoid of fibrosis

**Q.** And the heart mass (N171-82Q HD mice; [1])?
**A.** elevated

**Q.** What about the “stroke volume from baseline” value (N171-82Q HD mice; [1]) of the same compound?
**A.** increased

**Q.** And the heart rate (N171-82Q HD mice; N171-82Q mice under isoprenaline cardiac stress (NV-Iso))?
**A.** maintain a normal heart rate

**Q.** What about the survival (N171-82Q HD mice; N171-82Q mice with saline implant (NV-Sal group), NV-5297 160 mg/kg oral daily) of the same compound?
**A.** 100%

**Q.** What about the p70S6K1 levels (Npr13KO HEK293T cells) of the same compound?
**A.** remained unchanged
